{
  "source": "paper PMC8438664",
  "about": "(ACS Infectious Diseases, 2021)",
  "key": {"[1]": {"test_system": "conditionally immortalized proximal tubule epithelial cells (ciPTECs) overexpressing OAT-1", "assay": "ciPTEC cell viability assay", "assay_type": "cell-based, human", "conditions": "24 h, relative mitochondrial activity (PrestoBlue)"}, "[2]": {"conditions": "lipid II of VanA or VanB positive strains; cited from earlier work"}},
  "data": [
    {"smiles": "CN[C@H](CC(C)C)C(=O)N[C@H]1C(=O)N[C@@H](CC(N)=O)C(=O)N[C@H]2C(=O)N[C@H]3C(=O)N[C@H](C(=O)N[C@H](C(=O)O)c4cc(O)cc(O)c4-c4cc3ccc4O)[C@H](O)c3ccc(c(Cl)c3)Oc3cc2cc(c3O[C@@H]2O[C@H](CO)[C@@H](O)[C@H](O)[C@H]2O[C@H]2C[C@](C)(N)[C@H](O)[C@H](C)O2)Oc2ccc(cc2Cl)[C@H]1O", "note": "[Vancomycin]", "values": [
      {"measurement": "viability at a concentration of 1 mM", "setting": "[1]", "result": "> 50", "unit": "%"},
      {"measurement": "fold reduction in binding affinity on mutation of D-Ala-D-Ala to D-Ala-D-Lac", "setting": "[2]", "result": "> 1000", "unit": "fold"}
    ]}
  ]
}
